Source: patent US20100092575A1, “Method of making treatment materials and using same to treat algae and/or pests” (priority 2004, published 2010)

Assays:
[1] = system: flora and fauna in the water feature; conditions: previous treatment method of the water hazard
Text: A golf course water hazard in Northern California contained large mats (i.e., growths) of string algae during the summer months. The algae were predominantly confined to the edges of the water body. […] Furthermore, a special permit is needed to apply toxic copper sulfate.

[2] = aqueous; cited from earlier work

Compound	effect on flora and fauna in the water feature [1]	pH values at which decomposition significantly increases [2]
O=S(=O)([O-])[O-].[Cu+2] [copper sulfate]	killed most of the flora and fauna	–
OO [hydrogen peroxide]	–	greater than 6
